Biological target: T1, Calpain I (Homo sapiens, UniProt P07384)
T1 sequence (P07384 1-714): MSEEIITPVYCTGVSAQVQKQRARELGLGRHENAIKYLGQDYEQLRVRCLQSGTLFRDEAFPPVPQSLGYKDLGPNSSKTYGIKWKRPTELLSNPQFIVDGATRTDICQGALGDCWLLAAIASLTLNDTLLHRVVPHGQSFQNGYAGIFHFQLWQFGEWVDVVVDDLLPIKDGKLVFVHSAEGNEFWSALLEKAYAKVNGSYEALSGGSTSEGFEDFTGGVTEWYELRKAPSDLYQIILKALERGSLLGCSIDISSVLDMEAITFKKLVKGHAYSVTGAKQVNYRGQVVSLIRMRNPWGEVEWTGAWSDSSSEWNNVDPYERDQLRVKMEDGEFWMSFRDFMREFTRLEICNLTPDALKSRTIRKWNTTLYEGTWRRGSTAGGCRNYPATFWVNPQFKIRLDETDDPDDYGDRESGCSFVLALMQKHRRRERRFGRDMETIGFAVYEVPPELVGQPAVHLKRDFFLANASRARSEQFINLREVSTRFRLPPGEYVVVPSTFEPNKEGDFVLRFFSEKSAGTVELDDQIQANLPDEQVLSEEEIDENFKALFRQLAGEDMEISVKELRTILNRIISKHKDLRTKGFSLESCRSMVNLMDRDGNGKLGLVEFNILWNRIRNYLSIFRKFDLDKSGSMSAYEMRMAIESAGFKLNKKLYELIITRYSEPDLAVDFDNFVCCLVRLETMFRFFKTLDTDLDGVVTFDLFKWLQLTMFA
T1 sequence (P04632 1-268 partner): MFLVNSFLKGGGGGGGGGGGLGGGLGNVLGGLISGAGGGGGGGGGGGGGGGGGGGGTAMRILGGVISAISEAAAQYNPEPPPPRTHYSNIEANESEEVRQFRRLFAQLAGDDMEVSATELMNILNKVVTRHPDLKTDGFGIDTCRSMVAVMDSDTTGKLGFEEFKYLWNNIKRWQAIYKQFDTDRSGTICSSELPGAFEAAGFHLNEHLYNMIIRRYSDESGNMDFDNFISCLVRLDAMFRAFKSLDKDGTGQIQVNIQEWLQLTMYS
Assay: Inhibition and rate of inactivation of cysteine protease (calpain I) activity, Succ-Leu-Tyr-MNA substrate hydrolysis
Conditions: for kobs/I x 10^-3 M^-1s^-1: apparent second order rate constant of inactivation from reaction progress curves under pseudo-first order conditions, mean of three or more determinations; for inhibition at 0.1 µM: read-out: % Inhib. @ 0.1 uM
Description: To evaluate inhibitory activity, stock solutions (40 times concentrated) of each compound to be tested were prepared in 100% anhydrous DMSO and 5 µl of each inhibitor preparation were aliquoted into each of three wells of a 96 well plate. […] To start the reaction, 20 µl of 50 mM CaCl2 in assay buffer was added to all wells of the plate, excepting three, which were used as background signal baseline controls. Substrate hydrolysis was monitored every 5 minutes for a total of 30 minutes. Substrate hydrolysis in the absence of inhibitor was linear for up to 15 minutes.
Inhibition of calpain I activity was calculated as the percent decrease in the rate of substrate hydrolysis in the presence of inhibitor (vi) relative to the rate in its absence (vo). Comparison between vo and vi was made within the linear range for substrate hydrolysis. […] Apparent second order rate constants were determined from analysis of reaction progress curves under pseudo-first order conditions. Each determination represents the mean of three or more independent single cuvette analyses continually monitored via a Perkin-Elmer LS50B spectrofluorimeter.

| Molecule | kobs/I x 10^-3 M^-1s^-1 | inhibition at 0.1 µM | % Inhib. @ 0.1 uM (0.1 uM compound, percent decrease in rate of substrate hydrolysis relative to no inhibitor) |
| --- | --- | --- | --- |
| CCOP(=O)(CC(=O)[C@H](Cc1ccccc1)NC(=O)[C@H](CC(C)C)NC(=O)OCc1ccccc1)c1ccccc1 (stereo partly drawn) [Example 64, Ethyl (3S)-[3-[(N-benzyloxycarbonyl-L-leucyl)amino]-2-oxo-4-phenylbutyl] (phenyl)phosphinate] | 4 x 10^-3 M^-1s^-1 | 26% |  |
| COP(=O)(O)C(=O)[C@H](CC(C)C)NC(=O)[C@H](CC(C)C)NC(=O)OCc1ccccc1 [Example 65, Methyl Hydrogen N-Benzyloxycarbonyl-L-leucyl-L-leucylphosphonate] |  | 19% |  |
| CCCCOP(=O)(OCCCC)C(=O)[C@H](CC(C)C)NC(=O)[C@H](CC(C)C)NC(=O)OCc1ccccc1 [Example 66, Dibutyl N-Benzyloxycarbonyl-L-leucyl-L-leucylphosphonate] |  | 0% |  |
| CC(C)C[C@H](NC(=O)OCc1ccccc1)C(=O)N[C@@H](CC(C)C)C(=O)P(=O)(c1ccc(Cl)cc1)c1ccc(Cl)cc1 [Example 67, [Benzyloxycarbonyl-L-leucyl-L-leucyl]bis(4-chlorophenyl)phosphine oxide] |  | 4% |  |
| CCOP(=O)(C(=O)[C@H](CC(C)C)NC(=O)[C@H](CC(C)C)NC(=O)OCc1ccccc1)c1ccccc1 (stereo partly drawn) [Example 68, Ethyl N-benzyloxycarbonyl-L-leucyl-L-leucyl(phenyl)phosphinate] |  | 0% |  |
| (3S)-2-[3-[(N-Benzyloxycarbonyl-L-leucyl)amino]-2-oxo-4-phenylbutyl] 1H-phosphindoline 2-oxide [Example 62] |  |  | 34% |
| (3S)-[3-[(N-Benzyloxycarbonyl-L-leucyl)amino]-2-oxo-4-phenylbutyl] [3-(morpholin-4-yl)propyl](phenyl)phosphinate [Example 61] | 17 x 10^-3 M^-1s^-1 |  |  |

— EP1389624A1, “Phosphorous-containing cysteine and serine protease inhibitors” (CEPHALON, INC., priority 1995, dated 1997)
